# Data reported in US8993721B2, “Peptides for targeting apoptotic cells and uses thereof” (Kyungpook National University Industry-Academic Cooperation …, priority 2008, dated 2015).
# “Also recorded” adds a separate entry of the source. Where no end group is shown, it is not given here.
# How the values were obtained:
# [1] = tested on: etoposide-treated apoptotic cells (A549, H460, HeLa, L132, RAW); assay: Microscopic observation of binding of the peptide to apoptotic cells (Example 3-1); type: cell-based
# Method: Cells were cultured in chamber slide (Nalgene Nunc) and treated with 50 μM etoposide (Sigma) for a given period of time (A549 and HeLa cells: for 15 hours, H460 cells: 24 hours, L132 cells: 3 hours, RAW cells: 6 hours) to induce apoptosis. The cells were cultured in RMPI-1640 medium (A549 and H460 cells) or DMEM (HeLa, L132 and RAW cells) containing antibiotics (penicillin and streptomycin) and 10% FBS. All the cells were subcultured every 3 or 4 days. The apoptosis-induced apoptotic cells were washed with PBS and blocked with 1% BSA at 37° C. for 30 minutes. Then, the cells were reacted with 10 μM of the peptide labeled with fluorescein, at 4° C. for 1 hour. After washing, the cells were reacted with an annexin V reaction buffer containing Alexa594-labeled annexin V (Molecular Probes), at room temperature for 15 minutes. The cells were washed with PBS and then fixed with 4% paraformaldehyde for 5 minutes. Thereafter, after counterstaining using the nuclear stain 4′,6-diamidino-2-phenylindole (DAPI), followed by treatment with a mounting solution (Molecular Probes), images of the cells were obtained under a fluorescence microscope (Zeiss).
# [2] = tested on: apoptotic cells in A549 tumor tissue xenotransplanted under the skin of nude mouse; assay: Histological analysis of tumor targeting (Example 2); type: in vivo; conditions: fluorescein-labeled peptide, tail vein; for binding to cells stained by TUNEL (apoptotic cells) in tumor tissue: merge of peptide fluorescence and TUNEL
# Method: All animal experiments were performed in accordance with the guideline of the Institutional Animal Care and Use Committee. For tumor xenotransplantation, human lung cancer cells (A549, 1×10^7 cells) suspended in RMPI-1640 medium was subcutaneously injected at the right upper or lower limb of a 6-week-old male BALB/c nude mouse (Hyochang Science). Then, 3 weeks were given for the tumor to grow to a size of 0.5 to 1 cm. The A549 cell line used in the experiment was cultured in RMPI-1640 medium containing 10% fetal bovine serum (FBS) in which antibiotics (penicillin and streptomycin) were included. Subculturing was performed every 3 or 4 days.
# The peptides used in the present invention were fluorescein-attached form at the N-terminal. They were synthesized according to the standard Fmoc technique and then isolated through HPLC. The peptide synthesis was performed by an expertise company (Peptron).
# The peptide of the present invention (ApoPep-1) or a control peptide (amino acid sequence: NSSSVDK), labeled with fluorescein, was injected into the tail vein of a mouse under isoflurane anesthesia, to a final concentration of 50 μM, and 2 hours was given for circulation.
# For histological analysis, the mouse was anesthetized and the abdomen was cut open. After sequentially perfusing phosphate-buffered saline (PBS) and 4% paraformaldehyde through the heart, tumor tissues and organs were removed. Each tissue was cryosected and the peptide of the present invention was observed under a fluorescence microscope (Zeiss). Apoptosis in the tumor tissue was confirmed by TUNEL ([…] terminal deoxynucleotidyl transferase-mediated dUTP nick-end labeling) assay according to the instructions of the manufacturer (Chemicon). Fibrinogen staining was performed by immunohistochemistry using anti-fibrinogen antibody (Abcam) and secondary antibody labeled with Alexa 568, a red fluorescent reagent.
# [3] = tested on: etoposide-treated apoptotic A549 cells; assay: FACS analysis of binding to apoptotic cells (Example 3-3); type: cell-based, human
# Method: As another way of confirming the binding of the peptide of the present invention to apoptotic cells, apoptotic cells were treated with the peptide of the present invention, labeled with fluorescein, and the binding was confirmed through FACS analysis. […] The apoptotic cells or normal cells were reacted with ApoPep-1 (5 μM), ApoPep-2 (10 μM) or a control peptide at the same concentrations, labeled with fluorescein, at 4° C. for 1 hour. Further, the cells were reacted with fluorescein-labeled annexin V at room temperature for 15 minutes. After staining the cells with propodium iodide (PI) simultaneously, followed by washing with PBS, FACS analysis was performed using a FACS instrument (Becton Dickinson).
# [4] = tested on: A549 tumor xenotransplanted in nude mice; assay: In vivo fluorescence imaging of targeting of apoptotic cells in tumor (Example 4-1); design: species or system mouse
# Method: Nude mice in which tumor was xenotransplanted using A549 cells were prepared as in Example <2-1>. The mice were grouped into a doxorubicin (Sigma) treated group (+Dox) and untreated group (−Dox). The treated group was treated with doxorubicin (10 mg/kg) 3 times, with an interval of 48 hours, a week prior to injection of the peptide. At the tail vein of each mouse, the peptide of the present invention or a control peptide, labeled with fluorescein, was injected at a final concentration of 50 μM, under isoflurane anesthesia. Following the injection, in vivo fluorescence images were obtained every hour, from 1 hour to 6 hours after the injection, using an Optix exPlore instrument (GE Healthcare). The images were standardized using the software provided with the instrument.
# Further, when the tumor grew considerably (1 cm or larger in diameter), the peptide of the present invention was injected at the same concentration as above, without doxorubicin treatment, and in vivo fluorescence images were obtained at every given time using an IVIS fluorescence imaging system (Chemipro).
# [5] = tested on: A549 tumor xenotransplanted in nude mice; assay: In vivo fluorescence imaging of targeting of apoptotic cells in tumor (Example 10); design: species or system mouse
# Method: Nude mice in which tumor was xenotransplanted using A549 cells were prepared as in Example <8-1>. The mice were grouped into a doxorubicin (Sigma) treated group (Dox+) and untreated group (Dox−). The treated group was treated with doxorubicin (5 mg/kg) one time, 12 hours prior to injection of the peptide. At the tail vein of each mouse, the polypeptide of the present invention or a control peptide, labeled with fluorescein or Cy7.5 near-infrared fluorescent dye, was injected at a final concentration of 50 μM, under isoflurane anesthesia. Following the injection, in vivo fluorescence images were obtained 0.5 hours and every hour, from 1 hour to 4 hours, after the injection, using an Optix exPlore instrument (ART). The images were standardized using the software provided with the instrument.
# [6] = tested on: etoposide-treated apoptotic A549 cells; assay: FACS analysis of binding to apoptotic cells (Example 9-3); type: cell-based, human
# Method: As another way of confirming the binding of the polypeptide of the present invention (ApoPep-2) to apoptotic cells, apoptotic cells were treated with the peptide, labeled with fluorescein, and the binding was confirmed through FACS analysis. First, apoptosis was induced by treating A549 cells with 50 μM etoposide for 20 hours. The apoptotic cells or normal cells were reacted with ApoPep-2 (10 μM) or a control peptide at the same concentration, labeled with fluorescein, at 4° C. or 37° C. for 1 hour. Further, the cells were reacted with fluorescein-labeled annexin V at room temperature for 15 minutes. After washing cells with PBS, FACS analysis was performed using a FACS instrument (Becton Dickinson).
# [7] = etoposide 15 hours, peptide 5 μM, 4° C. 1 hour
substance,measurement,setting,value
"CQRPPR (also: fluorescein or Cy7.5 label) [ApoPep-1, peptide CQRPPR screened for macrophages; used fluorescein- or Cy7.5-labeled]",labeling of normal cells not treated with etoposide,"[1]; 10 μM fluorescein-labeled peptide 4° C. 1 hour, Alexa594-annexin V",no labeling was observed
same,labeling of etoposide-treated apoptotic cells (fluorescence microscopy),"[1]; 50 μM etoposide, 10 μM fluorescein-labeled peptide 4° C. 1 hour, Alexa594-annexin V room temperature 15 minutes",labeling was observed
same,location of peptide binding relative to annexin V binding (merge),[1]; etoposide-treated apoptotic cells,at the same locations
same,peptide fluorescence observed in the tumor tissue,"[2]; 50 μM final, 2 hours circulation, cryosections",observed in the tumor tissue
same,"binding to cells not stained by TUNEL (coagulation necrotic site, fibrinogen staining)","[2]; 50 μM, 2 hours",also binds to the cells not stained by TUNEL
same,binding to cells stained by TUNEL (apoptotic cells) in tumor tissue,"[2]; 50 μM, 2 hours",binds to the cells stained by TUNEL
same,binding to normal cells (FACS),"[3]; A549 cells without etoposide, 4° C. 1 hour",almost nonexistent
same,cells at the early stage of apoptosis bound to the peptide,[3]; [7],90.3%
same,cells at the later stage of apoptosis bound to the peptide,[3]; [7],7.2%
same,time until which the tumor fluorescence signal was detected,"[4]; doxorubicin treated group, fluorescein-labeled peptide 50 μM",5 h
same,time at which the fluorescence signal from the tumor tissue was most strongly detected,"[4]; doxorubicin treated group, fluorescein-labeled peptide 50 μM, tail vein",2 h
same,"fluorescence signal from the tumor, doxorubicin untreated group","[4]; −Dox, fluorescein-labeled peptide 50 μM",weakly detected or almost nonexistent
"CSVAPR (also: fluorescein or Cy7.5 label) [ApoPep-2, peptide CSVAPR screened for endothelial cells; used fluorescein- or Cy7.5-labeled]",binding to cells stained by TUNEL (apoptotic cells) in tumor tissue,"[2]; 50 μM, 2 hours",binds to the apoptotic cells in the tumor tissue
same,ex vivo fluorescence signal from the kidney,"[5]; 4 hours after peptide injection, all the groups, renal clearance",strong
same,"ex vivo fluorescence signal from the isolated tumor, doxorubicin treated group","[5]; 4 hours after peptide injection, compared to Dox− ApoPep-2 and Dox+ control peptide",strong
same,time at which the fluorescence signal from the tumor tissue was most strongly detected,"[5]; Cy7.5-labeled, doxorubicin treated group (5 mg/kg, 12 hours before)",2 h
same,"fluorescence signal from the tumor, doxorubicin treated group","[5]; Dox+, Cy7.5-labeled peptide 50 μM",targeted the tumor tissue
same,"fluorescence signal from the tumor, doxorubicin untreated group","[5]; Dox−, Cy7.5-labeled peptide 50 μM",targeting was not observed; also recorded: weakly detected
same,time from which fluorescence from the tumor was detected,"[5]; fluorescein-labeled, large tumor (1 cm or larger in diameter), no agent",2 h
same,binding to apoptotic cells versus normal cells (FACS),"[3]; etoposide 20 hours, peptide 10 μM at 4° C. or 37° C. for 1 hour",bound better to the apoptotic cells than to the normal cells
same,binding to normal cells (FACS),"[6]; A549 without etoposide, 10 μM, 4° C. or 37° C.",almost nonexistent or minimal
same,cells bound to the peptide at 4° C.,"[6]; etoposide 20 hours, peptide 10 μM, 4° C. 1 hour",28%
same,cells bound to the peptide at 37° C.,"[6]; etoposide 20 hours, peptide 10 μM, 37° C. 1 hour",48%
same,time from which fluorescence from the tumor was detected,"[4]; large tumor (1 cm or larger in diameter), no doxorubicin, IVIS",2 h
same,fluorescence signal from the tumor at 5 hours,"[4]; large tumor (1 cm or larger), no doxorubicin",strong fluorescence signal
